How the values were obtained:
[1] = molecular target: T1, Alpha-1A adrenergic receptor (Rattus norvegicus, UniProt P43140); assay: DRUGMATRIX: Alpha-1A adrenergic receptor radioligand binding (ligand: prazosin); assay type: cell membranes, Wistar, Submaxillary gland, Membrane; details: Not Active = under 50% inhibition at 10 µM
T1 sequence (P43140 whole entry): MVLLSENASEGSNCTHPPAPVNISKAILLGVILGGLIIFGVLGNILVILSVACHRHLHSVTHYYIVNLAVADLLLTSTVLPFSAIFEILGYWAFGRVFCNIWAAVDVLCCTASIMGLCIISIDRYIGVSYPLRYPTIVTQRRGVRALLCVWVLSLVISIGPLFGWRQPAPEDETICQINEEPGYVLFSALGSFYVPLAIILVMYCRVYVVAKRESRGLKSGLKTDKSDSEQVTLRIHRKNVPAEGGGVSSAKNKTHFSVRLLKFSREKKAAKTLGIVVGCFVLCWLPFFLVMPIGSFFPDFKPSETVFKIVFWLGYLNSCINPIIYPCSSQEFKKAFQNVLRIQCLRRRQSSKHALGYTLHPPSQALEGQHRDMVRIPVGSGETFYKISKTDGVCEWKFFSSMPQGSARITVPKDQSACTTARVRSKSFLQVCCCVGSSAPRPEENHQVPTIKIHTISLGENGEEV

[2] = DRUGMATRIX: Atrial Natriuretic Factor (ANF) radioligand binding (ligand: [125I] ANF (rat)); assay type: cell membranes, Cavia porcellus, Dunkin-Hartley, Adrenal gland, Membrane; details: Not Active = under 50% inhibition at 10 µM
[3] = molecular target: T2, Vasoactive intestinal polypeptide receptor 1 (Homo sapiens, UniProt P32241); assay type: cell membranes, Membrane; details: ht-29; note: in other assays of this panel Not Active means under 50% inhibition at 10 µM
T2 sequence (P32241 whole entry): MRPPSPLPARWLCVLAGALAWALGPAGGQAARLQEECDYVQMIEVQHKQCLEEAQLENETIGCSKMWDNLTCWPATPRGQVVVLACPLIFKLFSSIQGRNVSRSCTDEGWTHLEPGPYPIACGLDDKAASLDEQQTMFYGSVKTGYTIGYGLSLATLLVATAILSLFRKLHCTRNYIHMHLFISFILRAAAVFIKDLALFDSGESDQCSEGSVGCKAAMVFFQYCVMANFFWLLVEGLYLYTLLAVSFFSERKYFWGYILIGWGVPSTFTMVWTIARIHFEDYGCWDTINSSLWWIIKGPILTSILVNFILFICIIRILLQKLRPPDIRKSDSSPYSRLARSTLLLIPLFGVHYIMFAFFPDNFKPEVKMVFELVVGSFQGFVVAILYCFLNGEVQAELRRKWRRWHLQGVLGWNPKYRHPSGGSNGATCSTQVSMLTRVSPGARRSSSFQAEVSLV

[4] = DRUGMATRIX: Glutamate, Kainate radioligand binding (ligand: [3H] Kainic acid); assay type: cell membranes, Rattus norvegicus, Wistar, Brain, Membrane; details: Not Active = under 50% inhibition at 10 µM
[5] = molecular target: T3, Muscarinic acetylcholine receptor M2 (Homo sapiens, UniProt P08172); assay type: cell membranes, CHO-K1, Membrane; details: cho-k1; note: in other assays of this panel Not Active means under 50% inhibition at 10 µM
T3 sequence (P08172 whole entry): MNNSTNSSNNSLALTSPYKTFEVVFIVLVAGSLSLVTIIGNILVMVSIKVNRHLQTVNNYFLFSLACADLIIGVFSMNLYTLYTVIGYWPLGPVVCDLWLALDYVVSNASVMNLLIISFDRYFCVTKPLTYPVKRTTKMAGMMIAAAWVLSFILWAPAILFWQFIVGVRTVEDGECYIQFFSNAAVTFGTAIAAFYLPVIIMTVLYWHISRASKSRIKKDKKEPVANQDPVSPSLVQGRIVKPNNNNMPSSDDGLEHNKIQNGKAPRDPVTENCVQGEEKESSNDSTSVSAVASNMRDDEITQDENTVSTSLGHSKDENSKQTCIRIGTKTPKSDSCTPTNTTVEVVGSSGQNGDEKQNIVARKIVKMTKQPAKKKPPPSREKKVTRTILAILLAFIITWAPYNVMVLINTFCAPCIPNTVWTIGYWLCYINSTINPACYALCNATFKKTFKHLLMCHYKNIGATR

[6] = molecular target: Delta-type opioid receptor (Homo sapiens, UniProt P41143); assay type: cell membranes, HEK293, Membrane; details: hek293; note: in other assays of this panel Not Active means under 50% inhibition at 10 µM
Delta-type opioid receptor, sequence (P41143 whole entry): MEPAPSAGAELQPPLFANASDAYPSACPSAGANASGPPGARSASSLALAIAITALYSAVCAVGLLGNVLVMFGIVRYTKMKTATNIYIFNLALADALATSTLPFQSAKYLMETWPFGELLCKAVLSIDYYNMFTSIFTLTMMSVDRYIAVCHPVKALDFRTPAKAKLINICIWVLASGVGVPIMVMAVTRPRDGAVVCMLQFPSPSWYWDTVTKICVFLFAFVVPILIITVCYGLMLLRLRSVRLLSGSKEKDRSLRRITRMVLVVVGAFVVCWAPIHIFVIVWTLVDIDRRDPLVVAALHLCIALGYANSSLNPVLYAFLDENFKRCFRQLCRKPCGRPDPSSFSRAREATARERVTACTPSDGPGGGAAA

[7] = molecular target: Protein kinase C alpha type (Homo sapiens, UniProt P17252); assay type: cell-based; details: sf9;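 note: inhibition of PKCalpha kinase activity measured in an enzyme assay with histone as the phosphorylation substrate; in other assays of this panel Not Active means under 50% inhibition at 10 µM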

COc1ccnc(C[S+]([O-])c2nc3ccc(OC(F)F)cc3[nH]2)c1OC (centres undefined) [PANTOPRAZOLE]
Not Active: IC50 [1] | IC50 [2] | Ki [2] | IC50 [3] | IC50 [4] | Ki [4] | IC50 [5] | IC50 [6] | IC50 [7]

CCCCC1=NC2(CCCC2)C(=O)N1Cc1ccc(-c2ccccc2-c2nnn[nH]2)cc1 [IRBESARTAN]
Not Active: IC50 [1] | IC50 [2] | Ki [2] | IC50 [3] | IC50 [4] | Ki [4] | IC50 [5] | IC50 [6] | IC50 [7]

COC(=O)Nc1nc2cc(C(=O)c3ccc(F)cc3)ccc2[nH]1 [FLUBENDAZOLE]
Not Active: IC50 [1] | IC50 [2] | Ki [2] | IC50 [3] | IC50 [4] | Ki [4] | IC50 [5] | IC50 [6] | IC50 [7]

Cc1ccc(C)c(OCCCC(C)(C)C(=O)O)c1 [GEMFIBROZIL]
Not Active: IC50 [1] | IC50 [2] | Ki [2] | IC50 [3] | IC50 [4] | Ki [4] | IC50 [5] | IC50 [6] | IC50 [7]

C[N+](C)(C)C[C@H](O)CC(=O)[O-] [LEVOCARNITINE]
Not Active: IC50 [1] | IC50 [2] | Ki [2] | IC50 [3] | IC50 [4] | Ki [4] | IC50 [5] | IC50 [6] | IC50 [7]

CNC1=Nc2ccc(Cl)cc2C(c2ccccc2)=[N+]([O-])C1 [CHLORDIAZEPOXIDE]
Not Active: IC50 [1] | IC50 [2] | Ki [2] | IC50 [3] | IC50 [4] | Ki [4] | IC50 [5] | IC50 [6] | IC50 [7]

CC(O)COC[C@H]1O[C@@H]2O[C@H]3[C@H](O)[C@@H](O)[C@@H](O[C@H]4[C@H](O)[C@@H](O)[C@@H](O[C@H]5[C@H](O)[C@@H](O)[C@@H](O[C@H]6[C@H](O)[C@@H](O)[C@@H](O[C@H]7[C@H](O)[C@@H](O)[C@@H](O[C@H]8[C@H](O)[C@@H](O)[C@@H](O[C@H]1[C@H](O)[C@H]2O)O[C@@H]8COCC(C)O)O[C@@H]7COCC(C)O)O[C@@H]6COCC(C)O)O[C@@H]5COCC(C)O)O[C@@H]4COCC(C)O)O[C@@H]3COCC(C)O (stereo partly drawn) [2-HYDROXYPROPYL-BETA-CYCLODEXTRIN]
Not Active: IC50 [1] | IC50 [2] | Ki [2] | IC50 [3] | IC50 [4] | Ki [4] | IC50 [5] | IC50 [6] | IC50 [7]

C[C@]12CC[C@@H]3c4ccc(O)cc4CC[C@H]3[C@@H]1C[C@@H](O)[C@@H]2O [ESTRIOL]
Not Active: IC50 [1] | IC50 [2] | Ki [2] | IC50 [3] | IC50 [4] | Ki [4] | IC50 [5] | IC50 [6] | IC50 [7]

O=C(O)P(=O)(O)O [FOSCARNET]
Not Active: IC50 [1] | IC50 [2] | Ki [2] | IC50 [3] | IC50 [4] | Ki [4] | IC50 [5] | IC50 [6] | IC50 [7]

CC1=NN(c2ccccc2)C(=O)C1 [EDARAVONE]
Not Active: IC50 [1] | IC50 [2] | Ki [2] | IC50 [3] | IC50 [4] | Ki [4] | IC50 [5] | IC50 [6] | IC50 [7]

CCCNC(C)C(=O)Nc1ccccc1C (centres undefined) [PRILOCAINE]
Not Active: IC50 [1] | IC50 [2] | Ki [2] | IC50 [3] | IC50 [4] | Ki [4] | IC50 [5] | IC50 [6] | IC50 [7]

— ChEMBL document CHEMBL1909046, “DrugMatrix in vitro pharmacology data”
